Key:
[1] = target: T1, KRAS4B (wild type) (Homo sapiens, UniProt P01116); experiment: K-Ras Nucleotide Exchange Assay-384 (SOS Exchange Assay by Cytoskeleton, GTPx_Cyt_IC50); type: biochemical; conditions: 1 μM KRAS4B, 0.05 μM SOS1, 1.5 μM mant-GDP
T1 construct: purchased Cytoskeleton CS-RS03 (K-Ras4B); CS-SOS1-A (SOS1)
Description: Example 16. Evaluation of Biological Activities: K-Ras Nucleotide Exchange Assay-384 (SOS Exchange Assay by Cytoskeleton (GTPx_Cyt_IC50))
This assay is used to evaluate inhibitors of K-ras, by monitoring the inhibition of nucleotide exchange over time, in the presence of the protein SOS.
384-well black, untreated plates (Corning 3820 with NBS or 3821 untreated) were used. K-Ras4B Protein was used, which is wild-type (Cytoskeleton #CS-RS03) with a concnetration of 5 mg/ml, or 200 μM. Human SOS1 Protein, Exchange Domain 564-1049 (Cytoskeleton # CS-SOS1-A) was used in a concentration of 3.03 mg/ml or 50 μM. Mant-GDP triethylammonium salt solution was purchased from Sigma (catalog No. 69244). 1M stock solution of Hepes was purchased from Sigma (catalog No. H9897). 1M stock solution of MgCl2 was purchased from Sigma (catalog No. M4880). CHAPS, 3% was purchased from Sigma (catalog No. C5070). Nonidet P40 was purchased from Sigma. KOH pellets were purchased from Sigma.
K-ras buffer containing 40 mM Hepes, 10 mM MgCl2, 0.05% CHAPS, 0.01% NP40 with a pH 7.5 was prepared as follows: to a Buffer base containing 4 ml 1M Hepes, 1 ml MgCl2,
93.3 ml d-H2O, pH 7.5 (with KOH pellets), 1.7 ml 3% CHAPS was added, followed by the addition of 1 ml 1% NP40.
Final Conditions of the method included 1 μM KRAS4B (wild type), 0.05 μM SOS1, 1.5 μM mant-GDP. Reagent Preparation included: thawing aliquots of KRAS, SOS, and mant-GDP; preparing 3x KRAS (3 uM) in assay buffer; preparing 3x SOS/mant-GDP (150 nM/4.5 uM) in assay buffer; and preparing 3x compounds in assay buffer.
Assay Procedure (1536) used 3.3 μl, 3x Kras, 3.3 μl 3x compound with preincubate 0 hour, and […] 3x SOS/mant-GDP. A kinetic read measuring fluorescence at 360_450 was performed for 30 min at 30 second intervals.
Reference compound SCH 54292 (reversible inhibitor) at about 100 μM was used with no preincubation. Reagents were only stable for 45 min on ice, and therefore were prepared fresh before each assay. Partial plates (up to 9 columns) were run at a time to minimize effects due to the amount of time it takes to read a whole plate. SOS/mant-GDP were added with an automated pipettor to initiate all reactions at the same time. Assay was typically performed at 0.5% solution in DMSO (compounds prepared in 1.5% DMSO initially).
Clariostar Settings were as follows. Test Name was Kras Kinetic 360-450. Basic settings of the test included Measurement type as Fluorescence (FI), and Microplate name as Corning 3820. Plate mode settings included 61 cycles, 30 second cycle time, and 10 flashes per well. Optic settings were as follows. Excitation wavelength was 360 nm. Emission wavelength was 450 nM. Excitation bandwidth was 12 nm. Emission bandwidth was 12 nm. Dichroic filter 405 was used. D6 Well(s) was used for gain adjustment. No shaking was used. General settings were as follows. Top optic was used. Settling time was 0.1 second. Reading direction was bidirectional, horizontal left to right, and bottom to top. The target temperature was 25° C.

[2] = target: Ras protein (Homo sapiens, UniProt P01116); experiment: GDPx_Icagen_IC50: SOS1-mediated guanine nucleotide exchange rate of Ras (mant-GDP); type: biochemical; conditions: SOS1-initiated exchange
Sequence of Ras protein (P01116 1-188 isoform P01116-2): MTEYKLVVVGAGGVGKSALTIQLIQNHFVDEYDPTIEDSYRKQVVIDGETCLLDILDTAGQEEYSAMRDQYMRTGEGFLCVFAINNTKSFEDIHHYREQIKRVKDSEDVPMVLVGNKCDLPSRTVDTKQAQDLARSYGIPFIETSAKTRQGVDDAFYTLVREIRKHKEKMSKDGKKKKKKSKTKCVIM
Description: (§1) In some embodiments, the IC50 assay measures the reduction effect of a given compound on the guanine nucleotide-echange rate of Ras protein in the presence of guanine nucleotide exchange protein SOS1, which is a Ras activator. In the assay GDP-loaded Ras was first prepared in a buffer containing the compound at certain concentration and fluorescent guanine nucleotide (mant-GDP (used in Icagene assay) or mant-GTP (used in other IC50 assays). The guanine nucleotide exchange was initiated by the addition of the SOS1 and its rate was reflected in the rate of fluorescence change as a function of time, which was monitored by a reader. The experiment was repeated at different compound concentrations and the IC50 of the compound was defined as the compound concentration at which half of its maximal reduction effect on the guanine nucleotide exchange rate is achieved. In other embodiments, other Ras activator proteins may be used. Non-limiting examples of other Ras activator proteins include RasGRP (Ras guanyl-releasing protein).
Example 17. Evaluation of Biological Activities: GDPx_Icagen_ICso
as §1, with “The IC50” for “In some embodiments, the IC50”, “guanine nucleotide-exchange” for “guanine nucleotide-echange”, “Ras is” for “Ras was”, “nucleotide (mant-GDP).” for “nucleotide (mant-GDP (used in Icagene assay) or mant-GTP (used in other IC50 assays).”, “achieved.” for “achieved. In other embodiments, other Ras activator proteins may be used. Non-limiting examples of other Ras activator proteins include RasGRP (Ras guanyl-releasing protein).”

T1 sequence (P01116 1-188 isoform P01116-2): as above

Structure (SMILES)	IC50 [1] [nM]	IC50 [2] [nM]
O=c1cc(COc2ccccc2)[nH]n1-c1nc2ccccc2[nH]1 [Compound145, 2-(1H-benzo[d]imidazol-2-yl)-5-(phenoxymethyl)-1,2-dihydro-3H-pyrazol-3-one]	3900	800
Cc1ccc(-n2[nH]c(CSc3ccccc3)cc2=O)nc1 [Compound 140, 2-(5-methylpyridin-2-yl)-5-((phenylthio)methyl)-1H-pyrazol-3(2H)-one]	30800	1600
Cc1c(CSc2ccccc2)[nH]n(-c2nc3ccccc3[nH]2)c1=O [Compound 141, 2-(1H-benzo[d]imidazol-2-yl)-4-methyl-5-((phenylthio)methyl)-1H-pyrazol-3(2H)-one]	100000	770
Cc1cc(C)nc(SCc2cc(=O)n(-c3ccccn3)[nH]2)n1 [Compound 143, 5-(((4,6-dimethylpyrimidin-2-yl)thio)methyl)-2-(pyridin-2-yl)-1,2-dihydro-3H-pyrazol-3-one]	5400	2100
Cc1cc(C)nc(SCc2cc(=O)n(-c3nc4ccccc4[nH]3)[nH]2)n1 [Compound 146, 2-(1H-benzo[d]imidazol-2-yl)-5-(((4,6-dimethylpyrimidin-2-yl)thio)methyl)-1,2-dihydro-3H-pyrazol-3-one]	2600	1800
Cc1nnc(SCc2cc(=O)n(-c3nc4ccccc4[nH]3)[nH]2)s1 [Compound 147, 2-(1H-benzo[d]imidazol-2-yl)-5-(((5-methyl-1,3,4-thiadiazol-2-yl)thio)methyl)-1,2-dihydro-3H-pyrazol-3-one]	850	3300
Cc1cc(C)nc(SCc2cc(=O)n(-c3nc4ccc(Br)cc4s3)[nH]2)n1 [Compound 155, 2-(6-bromobenzo[d]thiazol-2-yl)-5-(((4,6-dimethylpyrimidin-2-yl)thio)methyl)-1,2-dihydro-3H-pyrazol-3-one]	12800	–
Cc1cc(C)nc(SCc2cc(=O)n(-c3ccc(C(F)(F)F)cn3)[nH]2)n1 [Compound 157, 5-(((4,6-dimethylpyrimidin-2-yl)thio)methyl)-2-(5-(trifluoromethyl)pyridin-2-yl)-1,2-dihydro-3H-pyrazol-3-one]	17600	–
O=c1cc(CSc2ccc(Br)cn2)[nH]n1-c1ccccn1 [Compound 160, 5-(((5-bromopyridin-2-yl)thio)methyl)-2-(pyridin-2-yl)-1,2-dihydro-3H-pyrazol-3-one]	7400	–
O=c1cc(CSCc2ccc(F)cc2)[nH]n1-c1ccccn1 [Compound 161, 5-(((4-fluorobenzyl)thio)methyl)-2-(pyridin-2-yl)-1,2-dihydro-3H-pyrazol-3-one]	2700	–
O=c1cc(CSc2ccccc2)[nH]n1-c1cc(Br)ccn1 [Compound 176, 2-(4-bromopyridin-2-yl)-5-((phenylthio)methyl)-1,2-dihydro-3H-pyrazol-3-one]	–	6000
O=c1cc(CSc2nc3cccnc3s2)[nH]n1-c1nc2ccccc2[nH]1 [Compound 177, 2-(1H-benzo[d]imidazol-2-yl)-5-((thiazolo[5,4-b]pyridin-2-ylthio)methyl)-1,2-dihydro-3H-pyrazol-3-one]	–	400
O=c1cc(CSc2ccccc2)[nH]n1-c1ncc[nH]1 [Compound 179, 2-(1H-imidazol-2-yl)-5-((phenylthio)methyl)-1,2-dihydro-3H-pyrazol-3-one]	–	4500
O=c1cc(CSc2cccnc2)[nH]n1-c1nc2ccccc2[nH]1 [Compound 181, 2-(1H-benzo[d]imidazol-2-yl)-5-((pyridin-3-ylthio)methyl)-1,2-dihydro-3H-pyrazol-3-one]	–	2500
Cc1csc(SCc2cc(=O)n(-c3ccccn3)[nH]2)n1 [Compound 182, 5-(((4-methylthiazol-2-yl)thio)methyl)-2-(pyridin-2-yl)-1,2-dihydro-3H-pyrazol-3-one]	–	3200

Next, values leading:

IC50 [1] [nM]	IC50 [2] [nM]	Structure (SMILES)
–	50	CCc1csc(SCc2cc(=O)n(-c3nc4ccccc4[nH]3)[nH]2)n1 [Compound 139, 2-(1H-benzo[d]imidazol-2-yl)-5-(((4-ethylthiazol-2-yl)thio)methyl)-1H-pyrazol-3(2H)-one]
1200	170	O=c1cc(CSc2ccccn2)[nH]n1-c1nc2ccccc2[nH]1 [Compound 142, 2-(1H-benzo[d]imidazol-2-yl)-5-((pyridin-2-ylthio)methyl)-1H-pyrazol-3(2H)-one]
420	300	O=c1cc(CSc2ccccc2)[nH]n1-c1nc2ccccc2[nH]1 [Compound 144, 2-(1H-benzo[d]imidazol-2-yl)-5-((phenylthio)methyl)-1,2-dihydro-3H-pyrazol-3-one]
550	300	O=c1cc(CSCc2ccc(F)cc2)[nH]n1-c1nc2ccccc2[nH]1 [Compound 148, 2-(1H-benzo[d]imidazol-2-yl)-5-(((4-fluorobenzyl)thio)methyl)-1,2-dihydro-3H-pyrazol-3-one]
410	300	O=c1cc(CSc2nccc(C(F)(F)F)n2)[nH]n1-c1nc2ccccc2[nH]1 [Compound 149, 2-(1H-benzo[d]imidazol-2-yl)-5-(((4-(trifluoromethyl)pyrimidin-2-yl)thio)methyl)-1,2-dihydro-3H-pyrazol-3-one]
980	200	COc1cccc(SCc2cc(=O)n(-c3nc4ccccc4[nH]3)[nH]2)c1 [Compound 150, 2-(1H-benzo[d]imidazol-2-yl)-5-(((3-methoxyphenyl)thio)methyl)-1,2-dihydro-3H-pyrazol-3-one]
400	400	O=c1cc(CSc2nc(-c3ccccc3)cs2)[nH]n1-c1nc2ccccc2[nH]1 [Compound 151, 2-(1H-benzo[d]imidazol-2-yl)-5-(((4-phenylthiazol-2-yl)thio)methyl)-1,2-dihydro-3H-pyrazol-3-one]
–	63	O=c1cc(CSc2cc(Cl)cc(Cl)c2)[nH]n1-c1nc2ccccc2[nH]1 [Compound 175, 2-(1H-benzo[d]imidazol-2-yl)-5-(((3,5-dichlorophenyl)thio)methyl)-1,2-dihydro-3H-pyrazol-3-one]
–	320	NC(=O)c1ccc(SCc2cc(=O)n(-c3nc4ccccc4[nH]3)[nH]2)cc1 [Compound 178, 4-(((1-(1H-benzo[d]imidazol-2-yl)-5-oxo-2,5-dihydro-1H-pyrazol-3-yl)methyl)thio)benzamide]
–	200	O=c1cc(CSc2nc(Cc3ccccc3)cs2)[nH]n1-c1nc2ccccc2[nH]1 [Compound 180, 2-(1H-benzo[d]imidazol-2-yl)-5-(((4-benzylthiazol-2-yl)thio)methyl)-1,2-dihydro-3H-pyrazol-3-one]

Reference: patent US20200308165A1, “Compounds as Ras Inhibitors and Use Thereof” (D.E. Shaw Research, LLC, priority 2017, published 2020)
